Results published in publication PMC11434290, “Pharmacokinetics and Dose Proportionality Study of a Novel Antiparkinsonian Agent, a 1H-1,2,4-Triazol-3-ylthio-conjugate of Prottremine” (Molecules, 2024).
“Also recorded” adds a separate entry of the source.

Key:
[1] = test system: MPTP-, haloperidol-, and rotenone-induced models; conditions: cited from earlier work; for Dose showing antiparkinsonian activity: various mouse and rat models (MPTP-, haloperidol-, rotenone-induced)
[2] = Pharmacokinetics of PA-96 after single oral (p.o.) administration to mice; type: in vivo, CD-1 mice; conditions: for Tmax / bioavailability / Cmax / half-life / AUC(0-t) / Vd/F: both sexes, CD-1, mouse, whole blood; for Tmax / Cmax / half-life / AUC(0-t) / Vd/F: po; for bioavailability: oral, assessed via AUC of i.v. injection at 1 mg/kg; for Vd/F: read-out: Vz/F_obs
Protocol: After the development and validation of the method for determination of PA-96 in mice blood, a preliminary pharmacokinetic study was carried out. The agent PA-96 was administered to two mice per os as a suspension in Tween-80 at a dose of 10 mg/kg, and blood samples were taken from the animals at 0.5, 1, 1.5, 2, 2.5, 3, 3.5, 4, 5, 5.5, and 24 h after administration. Four 10 µL samples were taken at each timepoint: two were spotted onto the paper and dried, and two others were precipitated using the ZnSO4 solution. All prepared samples were analysed, and the graph representing the PA-96 peak area values was plotted (Figure 6). […] As such, the PPT method for whole blood samples was chosen for the next experiments.
After administration, blood samples were taken from the tail vein of each animal at 5, 10, 20, 30, 40, 50, 60, 75, 90, 120, and 150 min, and the samples were prepared following the PPT protocol.
(§1) The LC–MS/MS analysis was carried out using a Shimadzu LC-20AD Prominence chromatograph equipped with a cooling autosampler, binary gradient pump, and column oven (Shimadzu, Japan) coupled with a 3200 QTRAP mass spectrometer (AB SCIEX, Framingham, MA, USA) equipped with an electrospray ionisation source (ESI). The mass spectrometer worked in positive mode and multiple reaction monitoring (MRM) detection mode for quantitation. Analyst 1.6.2 software (AB SCIEX, Framingham, MA, USA) was used for instrument control and data acquisition, and MultiQuant 2.1 software (AB SCIEX, Framingham, MA, USA) was used for quantitation. To calculate the main pharmacokinetic parameters, the Microsoft Excel plugin PKSolver was used.
(§2) CD-1 mice (male and female) were obtained from the SPF vivarium of the Institute of Cytology and Genetics, Russia. The mice weighed 25–30 g at the beginning of the experiment.
An accurately weighed amount of PA-96 was mechanically mixed with Tween-80 using a mortar and pestle followed by suspending the obtained sample in physiological solution. The animals (n = 2) received a single dose of 10 mg/kg per os (p.o.). The timepoints were 0.5, 1, 1.5, 2, 2.5, 3, 3.5, 4, 5, 5.5, and 24 h. At each timepoint, 10 µL of blood was taken from the tail vein, and the sample was prepared by DBS and PPT with ZnSO4 in methanol. Afterwards, the samples were analysed in accordance with the HPLC–MS/MS protocol.
In the next experiment, the sampling scheme was optimised by changing the timepoints as follows: 5, 10, 20, 30, 40, 50, 60, 75, and 90 min, and 2, 2.5, 3, 3.5, 4, and 5 h; this was in order to investigate the pharmacokinetics more thoroughly. The experiment design was not changed, but the sample preparation was carried out by the PPT method exclusively.
(§3) In order to investigate the bioavailability and dose proportionality, PA-96 was administered p.o. at the dosages of 1, 5, and 10 mg/kg and intravenously (i.v.) at the dosages of 1 and 10 mg/kg. For each experiment, we used 6–7 mice. The blood was drawn from the tail vein at the following timepoints: 3, 5, 10, 15, 30, 45, 60, 90, 120, and 150 min. The samples were prepared and analysed.

[3] = Pharmacokinetics of PA-96 after intravenous (i.v.) injection to mice; type: in vivo, CD-1 mice; conditions: for AUC(0-t) / Cmax / Tmax / half-life: both sexes, CD-1, mouse, whole blood, iv
Protocol: To evaluate the bioavailability of the agent PA-96, a suspension of the compound with Tween-80 was administered intravenously at doses of 1 and 10 mg/kg. After administration, blood in an amount of approximately 10 µL was collected from the tail vein of each animal at 5, 10, 15, 30, 45, 60, 90, 120, and 150 min, and samples were prepared following the PPT protocol.
Therefore, it was necessary to widen the operating concentration range of the calibration curve. To quantify PA-96 in these blood samples, we prepared and analysed spikes containing the agent in concentrations of 530, 1325, 2650, 3530, 8800, 10,600, and 21,200 ng/mL, which were used to construct a high-concentration calibration curve. In addition to these calibrators, quality control samples were prepared containing PA-96 at the concentrations of 1760, 5300, and 17,100 ng/mL (QCL, QCM, and QCH, respectively). […] As the objective of building this calibration curve was to evaluate the concentration of PA-96 only in several samples, the full validation of this expansion of the developed bioanalytical method was not performed.
as §1, §2
as §3, with “For each experiment, we used 6–7 mice.” left out

[4] = test system: cultured naïve dopamine neurons; design: method as in PMID 36500381; conditions: in vitro; cited from earlier work
[5] = Stability of PA-96 in whole mouse blood; type: in vitro ADME, mice; conditions: spike 50 ng/mL, 5-240 min
From the text: A crucial factor to consider is the stability of the compound in biological matrices. Both whole blood and plasma may contain enzymes able to metabolise the substance, and the metabolism rate can be relatively high. This can result in a rapid decrease in the substance concentration and an incorrect calibration curve. Additionally, if blood samples from experimental animals are dried as spots, metabolism during drying may lead to incorrect analyte concentrations. Considering these factors, we investigated the stability of the agent PA-96 in whole mouse blood.
(§4) To study the influence of the enzymes on the PA-96 stability in whole blood, mice blood spikes containing PA-96 in the concentration of 50 ng/mL were prepared. Aliquots of the spike were precipitated according to the protocol described above. Sampling was carried out at the following timepoints: 5, 10, 20, 30, 40, 50, 120, 180, and 240 min. The long-term stability of the samples was studied by the comparison of freshly prepared samples and samples prepared and kept in different conditions for 7 days. The storage conditions were the following: room temperature (+23 °C), household fridge (+4 °C), and Kelvinator (−70 °C). The acceptance criterion was a CV ≤ 15% for every day and any storing condition.

[6] = Pharmacokinetics of PA-96 after double p.o. administration to mice; type: in vivo, CD-1 mice; conditions: for AUC(0-t) / Cmax / half-life / Vd/F: 5 mg/kg; for Vd/F: read-out: Vz/F_obs
Protocol: In our work, an experiment with double administration of the agent PA-96 was carried out. The substance was administered to mice (n = 6) two times at doses of 5 mg/kg within the interval of 4 h as a formulation in Tween-80. After the first administration, blood was collected from the tail vein of each animal at 5, 10, 20, 30, 40, 50, 60, 75, and 90 min, and 2, 2.5, 3, 3.5, and 4 h. After the administration of the second dose, blood was collected at the same timepoints, and all samples were prepared following the PPT protocol.
as §1, §2
To investigate the pharmacokinetics of PA-96 in a multiple dosing regimen, the dosage form was prepared as described above, but only half was administered to the animals (n = 6). The first portion, corresponding to a dose of 5 mg/kg, was administered to the mice followed by blood sampling at 5, 10, 20, 30, 40, 50, 60, 75, and 90 min, and 2, 2.5, 3, 3.5, and 4 h after administration. At the latter timepoint, the second dose was administered, and the blood was sampled at the same timepoints as listed above.

[7] = Stability of PA-96 in prepared samples under different storage conditions; type: physicochemical; conditions: within 7 days; +23 °C, +4 °C, −70 °C
Protocol: The stability of PA-96 in the prepared samples was investigated at different storage conditions, as mentioned in the experimental methods section.
as §4

mice = conditions: acute toxicity; cited from earlier work
[8] = animal MPTP and haloperidol models of PD
[9] = 5 mg/kg, single p.o., mice, mean ± SEM, n = 4
[10] = 10 mg/kg, single p.o., mice, mean ± SEM, n = 4
[11] = single p.o., 5 mg/kg, mice, mean ± SEM, n = 4
[12] = single p.o., 10 mg/kg, mice, mean ± SEM, n = 4
[13] = both sexes, CD-1, mouse, whole blood, po, double p.o. 2×5 mg/kg, 1st administration, mean ± SEM, n = 6
[14] = both sexes, CD-1, mouse, whole blood, po, double p.o. 2×5 mg/kg, 2nd administration, mean ± SEM, n = 6

## N[C@@H](Cc1ccc(O)c(O)c1)C(=O)O [L-DOPA, reference compound]
[1]
  Dose showing antiparkinsonian activity: 50 to 100 mg/kg

## C=C(C)[C@@H]1CC=C(C)[C@@H](Sc2nc[nH]n2)[C@@H]1O [PA-96]
[1]; MPTP and haloperidol-based mice models of Parkinson's disease
  Effect on motor deficits: alleviated motor deficits
[1]; MPTP-damaged brain
  Density of tyrosine hydroxylase positive neurons and dopamine concentration in the midbrain: increased
[1]; [8]
  Antiparkinsonian activity relative to Prottremine: more active than Prottremine
  Dose at which antiparkinsonian effect was displayed: 1 mg/kg
[2]; single p.o., 5 mg/kg, mice, mean ± SEM, n = 4, read-out: Tmax (converted)
  Tmax: 6.3 min
[2]; single p.o., 10 mg/kg, mice, mean ± SEM, n = 4, read-out: Tmax (converted)
  Tmax: 8.8 min
[2]; p.o. 5 mg/kg, mice
  bioavailability: ~7%
[2]; p.o. 10 mg/kg, mice
  bioavailability: ~35%
[2]; [9]
  Cmax: ~36 ng/mL
  half-life: 44 ± 13 min
[2]; [10]
  Cmax: ~588 ng/mL
  half-life: 15 min
[2]; p.o. doses of 5 mg/kg and 10 mg/kg, mice, read-out: Time of maximum concentration after administration
  Tmax: 5 to 10 min
[2]; [11]
  AUC(0-t): 28.3 ng·h/mL
  Vd/F: 190 L/kg
[2]; [12]
  AUC(0-t): 300 ng·h/mL
  Vd/F: 13.7 L/kg
  t1/2: 15.2 ± 1.2 min
[2]; p.o. 1 mg/kg, n = 2, mice, LLOQ 25 ng/mL
  Signal (concentration) in blood samples: lower than the LLOQ
[2]; p.o. 5 and 10 mg/kg, mice
  Time of complete elimination at oral administration: 2.5 to 3 h
[2]; p.o. 5 vs 10 mg/kg, mice
  Increase in both Cmax and AUC on twofold increase in the dose: by an order of magnitude
[2]; preliminary study, p.o. 10 mg/kg, n = 2 mice
  Time of complete elimination: 2.5 h
[2]; preliminary study, p.o. 10 mg/kg, n = 2 mice, first timepoint sampled
  Timepoint of maximum concentration: 30 min
[3]; 1 mg/kg, mean ± SEM, n = 6
  AUC(0-t): 85 ng·h/mL
  Cmax: 390 ng/mL
  Tmax: 3.3 min
  half-life: 37 ± 10 min
[3]; 10 mg/kg, mean ± SEM, n = 2
  AUC(0-t): 2170 ng·h/mL
  Cmax: > 7700 ng/mL
  half-life: 26.1 ± 2.9 min
[3]; 10 mg/kg, n = 2
  Tmax: 3 min
[3]; i.v. 1 and 10 mg/kg
  Concentration level 1 h after administration: several nanograms per mL
  Time in which concentration decreases twofold after injection: 10 to 15 min
[3]; i.v. 1 vs 10 mg/kg
  Increase of AUC when the dose was increased tenfold: approximately 25 times
  Increase of Cmax when the dose was increased tenfold: twentyfold
[4]
  Survival of cultured naïve dopamine neurons: supported the survival; also recorded: improved potency
[5]
  PA-96 concentration in whole mouse blood during stability investigation: consistent within the accuracy of analysis error
[6]; [13]
  AUC(0-t): 25 ng·h/mL
  Cmax: 60 ± 15 ng/mL
  half-life: 21 ± 4 min
  Vd/F: 108 ± 25 L/kg
[6]; [14]
  AUC(0-t): 135 ng·h/mL
  Cmax: 58 ± 13 ng/mL
  half-life: 19 ± 3 min
  Vd/F: 25 ± 4 L/kg
[6]; both sexes, CD-1, mouse, whole blood, po, double p.o. 2×5 mg/kg, interval 4 h, 1st administration, mean ± SEM, n = 6
  Tmax: 10 min
[6]; double p.o. 2×5 mg/kg, interval 4 h, mice
  Accumulation after double administration (Cmax, AUC0-∞): absence of its accumulation
[6]; p.o. 5 mg/kg, double administration experiment, mice
  Time to full elimination after administration: 4 h
[7]
  Change of PA-96 concentration in prepared samples: ≤ 11%

## C=C(C)[C@@H]1CC=C(C)[C@@H](O)[C@@H]1O [Prottremine, (1R,2R,6S)-3-methyl-6-(prop-1-en-2-yl)cyclohex-3-ene-1,2-diol]
[1]
  Dose showing antiparkinsonian activity: 20 mg/kg
mice
  LD50: 4250 mg/kg
